Our source for the melting point values is the Bradley open melting point set (2014).

Where “and” joins values, the source holds several entries; their conditions need not be identical. Identical values can stand only once.

Turning to `CC(=O)NC1C2CCC(C)(C1NC(C)=O)C2(C)C` (configuration not stated), the melting point – broadly, the temperature of the solid-liquid transition – is 250 °C. Compound `N#C/C(=N/Nc1cc(Cl)ccc1Cl)c1nc(-c2ccccc2)cs1` registered a melting point of 134 °C. `COc1ccccc1B(O)O` [2-methoxybenzeneboronic acid] came in with a melting point of 104 °C. Regarding `c1ccc2c(c1)Cc1cc3ccccc3cc1-2` [2,3-benzofluorene], the melting point is 210 °C. The figure for `CC(=O)C(C)C` [3-methyl-2-butanone] is -92 °C; for `OB(O)c1ccsc1` [thiophene-3-boronic acid] it is 167 °C; for `Cc1c(C)c(C)c(C)c(C)c1C` [hexamethylbenzene] it is 164 °C and 168 °C. With `COC(=O)CS(C)(=O)=O` [methyl methylsulfonylacetate], the melting point is 61 °C. For `CC(C)SC(C)C` [Diisopropyl sulfide] the value was -106 °C; for `CCCCC1CCCCC1` [butylcyclohexane], -75 °C. For the compound `OCc1ccccc1O[C@@H]1O[C@H](CO)[C@@H](O)[C@H](O)[C@H]1O` [2-(Hydroxymethyl)phenyl beta-D-glucopyranoside], the melting point is 199 °C. Consider `O=C(O)c1cccnc1` [Nicotinic acid], for which the melting point came out at 237 °C.

The compound `CCCC(=O)OC(=O)CCC` [butyric anhydride] showed a melting point of -75 °C.

The compound `COc1cc(N)c(Cl)cc1C(=O)NC1CCN(CCCOc2ccc(F)cc2)CC1OC` (configuration not stated) [Cisapride] returned a melting point of 110 °C.

In the case of `C=C1[C@@H]2CC[C@@H](C2)C1(C)C` [camphene], the melting point amounted to 35 °C.

Consider `O=C(O)c1ccccc1[N+](=O)[O-]` [o-nitrobenzoic_acid], for which the melting point stood at 148 °C. For `CC(C)(C)O` [2-methyl-2-propanol], the melting point came out at 26 °C. In turn, `O=[N+]([O-])c1cccc(Cl)c1Cl` [1,2-dichloro-3-nitrobenzene] showed a melting point of 62 °C. Take `CCOc1ccc(NC(C)=O)cc1` [4-ethoxyacetanilide]: the melting point turned out to be 135 °C. On to `Oc1c(Cl)c(Cl)c(Cl)c(Cl)c1Cl` [Pentachlorophenol], for which the melting point turned out to be 174 °C. For `Cc1[nH]cnc1C=O` [5-methylimidazole-4-carboxaldehyde], the melting point turned out to be 168 °C. `CCOC(=O)CC` [ethyl propionate] had a melting point of -73 °C. `OB(O)c1ccccc1O` [2-hydroxybenzeneboronic acid] yielded a melting point of 185 °C.

Turning to `OB(O)c1ccc(-c2ccccc2)cc1` [biphenyl-4-boronic acid], the melting point came out at 243 °C. In turn, `N#CCc1ccc2ccccc2c1` [2-naphthylacetonitrile] came in with a melting point of 83 °C. For the compound `Cc1ccc(-c2ccccc2)s1` [2-methyl-5-phenylthiophene], the melting point was found to be 48 °C. In the case of `Cc1ccc(N)cc1[N+](=O)[O-]` [4-methyl-3-nitroaniline], the melting point amounted to 77 °C. For `CCc1ccccc1` [ethylbenzene] the value was -95 °C. The figure for `CCCCCCCCCCCCCCCCCCCCCC` [N-docosane] is 45 °C; for `CC(=O)Oc1ccc([N+](=O)[O-])cc1` [4-Nitrophenyl acetate] it is 78 °C; for `O=C(/C=C/c1ccc(-c2ccccc2)o1)c1ccccc1` [(2E)-1-phenyl-3-(5-phenyl-2-furyl)prop-2-en-1-one] it is 80 °C. In turn, `Cc1ccc(C(C)C)cc2c(C)ccc1-2` [guaiazulene] showed a melting point of 32 °C.

Regarding `CC(C)[C@@H]1CC[C@@H](C)C[C@H]1O` [Menthol], the melting point stood at 43 °C. Compound `CS(=O)(=O)c1cccs1` [2-(methylsulfonyl)thiophene] displayed a melting point of 48 °C.

For `O=C(Cl)N(c1ccccc1)c1ccccc1` [diphenylcarbamyl chloride], the melting point amounted to 84 °C.

In the case of `CC(N)=O` [Acetamide], the melting point stood at 81 °C. The figure for `O=C5\C=C4/C(C3CCC2(C(CCC2OC(=O)c1ccccc1)C3CC4)C)(C)CC5` (configuration not stated) [testosterone benzoate] is 195 °C; for `C=Cc1ccccc1C(N)=O` [o-vinylbenzamide] it is 152 °C. `O=C1C=C(NCNc2ccccn2)C(=O)c2ccccc21` [2-{[(pyridin-2-ylamino)methyl]amino}naphthalene-1,4-dione] returned a melting point of 135 °C.

Turning to `CCCN(CCC)S(=O)(=O)c1ccc(C(=O)O)cc1` [probenecid], the melting point was found to be 198 °C. The figure for `Clc1ccc(I)cc1` [1-chloro-4-iodobenzene] is 55 °C; for `C1CCNC1` [pyrrolidine] it is -63 °C; for `Oc1ccccc1O` [catechol] [listing 1 of 2 here] it is 105 °C. In turn, `O=C(O)c1ccc(I)cc1` [p-iodobenzoic_acid] yielded a melting point of 273 °C. `Oc1ccccc1I` [o-iodophenol]: the melting point was determined as 42 °C. `COc1ccc(C)cc1OC` [3,4-dimethoxytoluene] registered a melting point of 27 °C. The compound `O=C1CCN(c2ccccc2)N1` [1-Phenylpyrazolidin-3-one] returned a melting point of 122 °C. For the compound `CC(=O)OC1CCC2(C)C(C1)CC1(OCCO1)C1C2CCC2(C)C1CCC21OCCO1` (configuration not stated), the melting point was determined as 208 °C. For `CC12CCC=C1C1CCC3CC(O)CCC3(C)C1CC2` (configuration not stated) [androst-14-en-3-ol] the value was 130 °C; for `Cc1ccc(C=O)cc1` [p-tolualdehyde], -6 °C; for `CCOC(=O)c1ccc(N)cc1` [ethyl p-aminobenzoate], 89 °C. Compound `c1ccc(CC2CCNCC2)cc1` [4-benzylpiperidine] registered a melting point of 7 °C. With `COc1ccccc1CC#N` [2-methoxyphenylacetonitrile], the melting point came out at 68 °C.

`CO/C(C)=C(\C#N)c1ccccc1[N+](=O)[O-]` [(2Z)-3-methoxy-2-(2-nitrophenyl)but-2-enenitrile] displayed a melting point of 68 °C. `COC(=O)CCC(C)C1CCC2C3CCC4CC(=O)CCC4(C)C3CC(=O)C12C` (configuration not stated) [methyl 3,12-dioxocholan-24-oate] displayed a melting point of 130 °C.

`Cc1c(CSC2OCC(O)C(O)C2O)c(C)c(CSC2OCC(O)C(O)C2O)c(C)c1CSC1OCC(O)C(O)C1O` (configuration not stated) had a melting point of 209 °C. In turn, `COc1cc(C)ccc1O` [2-methoxy-4-methylphenol] returned a melting point of 6 °C.

For `Cc1cncc(C)n1` [2,6-dimethylpyrazine], the melting point was determined as 41 °C.

`c1cscn1` [thiazole] yielded a melting point of -33 °C. The compound `Oc1ccccc1O` [catechol] [listing 2 of 2 here] had a melting point of 106 °C.

`O=C(O)/C=C/c1cccc2c(Br)ccc([N+](=O)[O-])c12` [(2E)-3-(5-bromo-8-nitronaphthalen-1-yl)prop-2-enoic acid]: the melting point was found to be 142 °C. On to `CC1(C)O[C@@H]2CO[C@]3(COC(C)(C)O3)C(=O)[C@@H]2O1` [D-epoxone], for which the melting point is 102 °C. In the case of `O=C(O)CCCCCCCCCCCCCCCO` [16-hydroxyhexadecanoic acid], the melting point came to 99 °C. On to `O=C(NC(C(=O)O)c1ccccc1)OCC(Cl)(Cl)Cl` (configuration not stated) [Phenyl{[(2,2,2-trichloroethoxy)carbonyl]amino}acetic acid], for which the melting point worked out at 142 °C.

As to `O=C(O)c1ccccc1I` [2-Iodobenzoic acid], the melting point worked out at 162 °C.

The compound `N#CCCCC#N` [glutaronitrile] showed a melting point of -29 °C. Compound `OCCCCO` [Butane-1,4-diol] registered a melting point of 18 °C. `N#Cc1ccc([N+](=O)[O-])cc1` [p-nitrobenzonitrile]: the melting point was determined as 149 °C.

`Cc1cccc(B(O)O)c1` [3-methylbenzeneboronic acid] returned a melting point of 161 °C. The compound `CCC(=O)O` [propanoic acid] yielded a melting point of -20.7 °C. For the compound `O=C(CO)[C@H](O)[C@@H](O)[C@H](O)CO` [D-sorbose], the melting point amounted to 164 °C.

With `O=C(c1ccc(F)cc1)c1ccccc1F` [2,4'-difluorobenzophenone], the melting point was determined as 23 °C. For `O=C(O)c1ccccc1C(=O)O` [Phthalic Acid] the value was 230 °C; for `COc1ccc(C(=O)/C=C/c2ccc(-c3ccccc3OC)o2)cc1OC`, 145 °C. As to `CCC1(C2=CCCCCC2)C(=O)NC(=O)NC1=O` [Heptabarbital], the melting point was 174 °C. `CC(C)(Oc1ccc(CCNC(=O)c2ccc(Cl)cc2)cc1)C(=O)O` [bezafibrate] gave a melting point of 186 °C. Turning to `C1=CCCCC1` [cyclohexene], the melting point is -104 °C. As to `O=[N+]([O-])c1ccc(N=Nc2ccc(O)cc2O)cc1` [4-[(4-Nitrophenyl)diazenyl]benzene-1,3-diol], the melting point amounted to 200 °C. For `CCCCOC(=O)CCC` [butyl butyrate], the melting point was -92 °C (3×) and -91.5 °C (2×). The compound `O=C(O)c1ccc2cc(O)ccc2c1` [6-hydroxy-2-naphthoic acid] had a melting point of 249 °C. Compound `C=CCCCCCCCCCCCC` [Tetradec-1-ene] returned a melting point of -13 °C. The figure for `O=[N+]([O-])c1ccc(Oc2ccccc2)cc1` [4-nitrophenyl phenyl ether] is 55 °C. As to `Cc1noc(NS(=O)(=O)c2ccc(N)cc2)c1C` [Sulfisoxazole], the melting point turned out to be 194 °C. For the compound `CC(C)(C)c1ccc(Br)cc1` [1-bromo-4-tert-butylbenzene], the melting point came to 16 °C. In turn, `N#CCC(=O)c1ccccc1Cl` [2-chlorobenzoylacetonitrile] returned a melting point of 56 °C. For the compound `Oc1ccc2ccc(O)cc2c1` [2,7-dihydroxynaphthalene], the melting point was found to be 186 °C. Compound `O=[N+]([O-])c1cccc(N=C=S)c1` [3-nitrophenyl isothiocyanate] showed a melting point of 57 °C. `C=CCc1ccccc1C(=O)O` [2-prop-2-en-1-ylbenzoic acid] came in with a melting point of 84 °C. As to `OCCN1CCOCC1` [4-(2-hydroxyethyl)morpholine], the melting point was 2 °C. `Clc1ccc(C(c2ccccc2Cl)C(Cl)(Cl)Cl)cc1` (configuration not stated) [o,p'-DDT] yielded a melting point of 75 °C. For the compound `O=C(O)Cc1ccccc1` [phenylacetic_acid], the melting point stood at 79 °C. As for `C/C=C/C1Nn2c(nnc2-c2ccc(OC)cc2)S1` (configuration not stated), the melting point was 81 °C.
